The supplement of paper PMC13380429
Counter-ions that a name gives are not always drawn.

What was measured:
Settings in all cases: 72 h
HepG2 [1] = test: relative viability EC50 (midpoint between 100% and the lowest measured viability); higher = less toxic
Caco-2 [2] = test: drug sensitivity score (DSS) for viability; higher = more toxic; extreme values may be limits of the assay
HepG2 [3] = test: as above
Vero E6 [4] = test: as above
U2OS [5] = test: as above
Calu-3 [6] = test: as above
Caco-2 [7] = test: cell viability relative to DMSO; higher = less toxic
HepG2 [8] = test: as above
Vero E6 [9] = test: as above
U2OS [10] = test: as above
Calu-3 [11] = test: as above
Caco-2 [12] = test: relative viability EC50 (midpoint between 100% and the lowest measured viability); higher = less toxic
U2OS [13] = test: as above
Calu-3 [14] = test: as above

SMILES	relative viability EC50 (HepG2 [1])	drug sensitivity score (Caco-2 [2])	drug sensitivity score (HepG2 [3])	drug sensitivity score (Vero E6 [4])	drug sensitivity score (U2OS [5])	drug sensitivity score (Calu-3 [6])	cell viability (Caco-2 [7]; 1 nM)	cell viability (Caco-2 [7]; 10 nM)	cell viability (Caco-2 [7]; 100 nM)	cell viability (Caco-2 [7]; 1000 nM)	cell viability (Caco-2 [7]; 10000 nM)	cell viability (HepG2 [8]; 1 nM)	cell viability (HepG2 [8]; 10 nM)	cell viability (HepG2 [8]; 100 nM)	cell viability (HepG2 [8]; 1000 nM)	cell viability (HepG2 [8]; 10000 nM)	cell viability (Vero E6 [9]; 1 nM)	cell viability (Vero E6 [9]; 10 nM)	cell viability (Vero E6 [9]; 100 nM)	cell viability (Vero E6 [9]; 1000 nM)	cell viability (Vero E6 [9]; 10000 nM)	cell viability (U2OS [10]; 1 nM)	cell viability (U2OS [10]; 10 nM)	cell viability (U2OS [10]; 100 nM)	cell viability (U2OS [10]; 1000 nM)	cell viability (U2OS [10]; 10000 nM)	cell viability (Calu-3 [11]; 1 nM)	cell viability (Calu-3 [11]; 10 nM)	cell viability (Calu-3 [11]; 100 nM)	cell viability (Calu-3 [11]; 1000 nM)	cell viability (Calu-3 [11]; 10000 nM)	relative viability EC50 (Caco-2 [12])	relative viability EC50 (U2OS [13])	relative viability EC50 (Calu-3 [14])
Cc1cccc2c1CC[C@H](CN1CCC(c3c(Cl)cccc3Cl)CC1)C[C@@H]2O	1.65 µM	4.7	5.5	2.2	2.8	4.2	93.9%	95.8%	91.3%	78.3%	58.1%	104%	102%	93.3%	86.5%	38.5%	99.2%	104%	95%	90.2%	70%	102%	106%	95.2%	94.2%	62.1%	93.8%	106%	89.1%	83.8%	51.2%			
CS(=O)(=O)c1ccc(-c2nnc(/C=C/c3nnc(-c4ccc(C#N)cc4)o3)n2-c2ccccc2Cl)nc1 [G007-LK]	> 10 µM	2.6	0.1	7.5	1.4	11.1	104%	108%	93.1%	83.1%	94.1%	107%	106%	101%	92.8%	89.5%	99.2%	105%	95.1%	61.7%	57.8%	94.7%	98%	91.8%	85.8%	83.5%	105%	93.4%	67.1%	66%	77.2%	> 10 µM	> 10 µM	
COc1ccc(C2(CNC(=O)c3ccc(NC(=O)c4ccco4)cc3)CCOCC2)cc1 [JW-55]	> 10 µM	0	0	1.6	0		101%	91.6%	97.8%	92.1%	93.6%	100%	117%	94.9%	102%	89.3%	103%	108%	97.3%	102%	62.6%	103%	95.9%	97.8%	95.2%	90.8%						> 10 µM	> 10 µM	
CN(C)CC/C=C1/c2ccccc2COc2ccc(CC(=O)O)cc21 [Olopatadine hydrochloride (Opatanol)]			0	0	0	0																												
C[C@H]1O[C@H](O[C@H]2[C@H](O)[C@@H](O)[C@@H](O[C@H]3[C@H](O)[C@@H](O)C(O)O[C@@H]3CO)O[C@@H]2CO)[C@H](O)[C@@H](O)[C@@H]1N[C@H]1C=C(CO)[C@@H](O)[C@H](O)[C@H]1O (some centres undefined) [acarbose]			0	0		0																												
O=C(Nc1nc2cccc(-c3ccc(CN4CCS(=O)(=O)CC4)cc3)n2n1)C1CC1 [filgotinib]		0	2.3			0	111%	104%	93.2%	95.7%	96.5%	100%	99.1%	96.4%	102%	53.4%											95.7%	105%	98.2%	87.5%	97.4%	> 10 µM		> 10 µM
CC(=O)O[C@H]1C[C@@]2(C)[C@@H](C[C@@H](O)[C@H]3[C@@]4(C)CC[C@@H](O)[C@@H](C)[C@@H]4CC[C@@]32C)/C1=C(\CCC=C(C)C)C(=O)O [fusidic-acid]		0			0	0.3	103%	116%	89.6%	104%	99.5%											98.8%	104%	99.6%	106%	100%	96%	109%	93.7%	93.5%	86.1%	> 10 µM	> 10 µM	> 10 µM
CC(C)Cc1ccc(C(C)C(=O)NO)cc1 (centres undefined) [ibuproxam]			0	0	0	0																												
N[C@H](Cc1cc(I)c(Oc2ccc(O)c(I)c2)c(I)c1)C(=O)O [liothyronine-(isomer)]		0	0	0	0		99.7%	92.9%	100%	104%	92.7%	109%	99.7%	107%	102%	105%	98.8%	92.9%	93.1%	90.7%	91.1%	101%	99.9%	96.8%	102%	96%								
CC1CS(=O)(=O)CCN1/N=C/c1ccc([N+](=O)[O-])o1 (centres undefined) [nifurtimox]			0	0	0	0																												
CC(=O)O[C@H]1C(=O)[C@@]2(C)[C@H]([C@H](OC(=O)c3ccccc3)[C@]3(O)C[C@H](OC(=O)[C@H](O)[C@@H](NC(=O)c4ccccc4)c4ccccc4)C(C)=C1C3(C)C)[C@]1(OC(C)=O)CO[C@@H]1C[C@@H]2O [paclitaxel]	0.0095 µM	14.7	24.9	8.6	25.9	16.4	109%	84.8%	61.7%	57%	48.7%	108%	64.9%	42.8%	36.5%	34.4%	103%	98.3%	91.6%	59.8%	74.2%	101%	67.9%	32.9%	30.3%	26.3%	97.9%	64.3%	62.6%	68.5%	65.7%	0.0334 µM	0.0128 µM	
N=C(N)c1ccc(OCCCCCOc2ccc(C(=N)N)cc2)cc1 [pentamidine]	0.39 µM	1.9	13.9	3.4	1.8	0	90.1%	93.4%	92.2%	93.9%	71.7%	104%	97.5%	105%	22.5%	18.3%	107%	65.4%	92.6%	79.8%	82.9%	105%	105%	101%	96.3%	71.5%	94.7%	104%	104%	96%	94.5%			> 10 µM
Cc1nc(=O)c2cc(CN(C)c3ccc(C(=O)N[C@@H](CCC(=O)O)C(=O)O)s3)ccc2[nH]1 [raltitrexed]		13.4	10.5	10.7	0	2	91.2%	99%	64.2%	59.9%	50.1%	111%	104%	70.7%	60.7%	65.1%	98.8%	101%	66.1%	62.9%	66.6%	99.1%	105%	100%	97.4%	95.8%	103%	104%	87.4%	92.6%	85.8%		> 10 µM	> 10 µM
CO[C@H]1C[C@@H]2CC[C@@H](C)[C@@](O)(O2)C(=O)C(=O)N2CCCC[C@H]2C(=O)O[C@H]([C@H](C)C[C@@H]2CC[C@H](n3cnnn3)[C@H](OC)C2)CC(=O)[C@H](C)/C=C(\C)[C@@H](O)[C@@H](OC)C(=O)[C@H](C)C[C@H](C)/C=C/C=C/C=C/1C [zotarolimus]		19.5	15.4	11.9	19.9	22.1	82.5%	63.1%	60%	52.9%	60.3%	84.4%	74%	63.1%	62.9%	61.1%	92.6%	85.2%	69.6%	61%	58.7%	93.4%	61.8%	60.2%	56.9%	52.5%	68.2%	59.4%	54.5%	46.3%	52.2%			< 0.001 µM
